Laboratory results: ChEMBL document CHEMBL1275492, “In vitro activity of ceftobiprole against pathogens from two phase 3 clinical trials of complicated skin and skin structure infections” (2008)
Converted amounts (≈) assume the structure as drawn. Values belong to the compound of their own block, whether it stands above or below them.

How the values were obtained:
Assay type in all cases: functional
Enterococcus faecium = assay: Antibacterial activity against Enterococcus faecium obtained from complicated skin and skin structure infections by agar dilution method
Mammaliicoccus sciuri = assay: Antibacterial activity against coagulase-negative Staphylococcus sciuri obtained from complicated skin and skin structure infections by agar dilution method
Bacillus = assay: Antibacterial activity against Bacillus spp. obtained from complicated skin and skin structure infections by agar dilution method
Gemella = assay: Antibacterial activity against Gemella spp. obtained from complicated skin and skin structure infections by agar dilution method
[1] = test system: Staphylococcus saprophyticus; assay: Antibacterial activity against coagulase-negative Staphylococcus saprophyticus obtained from complicated skin and skin structure infections by agar dilution method
Streptococcus agalactiae = assay: Antibacterial activity against Streptococcus agalactiae obtained from complicated skin and skin structure infections by agar dilution method
[2] = Antibacterial activity against Streptococcus sp. 'group C' obtained from complicated skin and skin structure infections by agar dilution method
[3] = test system: Staphylococcus lugdunensis; assay: Antibacterial activity against coagulase-negative Staphylococcus lugdunensis obtained from complicated skin and skin structure infections by agar dilution method
Aerococcus viridans = assay: Antibacterial activity against Aerococcus viridans obtained from complicated skin and skin structure infections by agar dilution method
[4] = test system: Staphylococcus epidermidis; assay: Antibacterial activity against coagulase-negative Staphylococcus epidermidis obtained from complicated skin and skin structure infections by agar dilution method
Staphylococcus aureus [5] = assay: Antibacterial activity against methicillin resistant Staphylococcus aureus obtained from complicated skin and skin structure infections by agar dilution method
[6] = test system: Staphylococcus lugdunensis; assay: Antibacterial activity against methicillin-resistant, oxacillin-susceptible, coagulase-negative, mecA-positive Staphylococcus lugdunensis obtained from complicated skin and skin structure infections by agar dilution method
Staphylococcus = assay: Antibacterial activity against methicillin-susceptible, coagulase-negative Staphylococcus obtained from complicated skin and skin structure infections by agar dilution method
Staphylococcus aureus [7] = assay: Antibacterial activity against Staphylococcus aureus obtained from complicated skin and skin structure infections by agar dilution method
Micrococcus = assay: Antibacterial activity against Micrococcus spp. obtained from complicated skin and skin structure infections by agar dilution method
Staphylococcus cohnii = assay: Antibacterial activity against coagulase-negative Staphylococcus cohnii obtained from complicated skin and skin structure infections by agar dilution method
[8] = test system: Staphylococcus haemolyticus; assay: Antibacterial activity against coagulase-negative Staphylococcus haemolyticus obtained from complicated skin and skin structure infections by agar dilution method
Staphylococcus warneri = assay: Antibacterial activity against coagulase-negative Staphylococcus warneri obtained from complicated skin and skin structure infections by agar dilution method
Streptococcus mitis = assay: Antibacterial activity against Streptococcus mitis obtained from complicated skin and skin structure infections by agar dilution method
Gemella morbillorum = assay: Antibacterial activity against Gemella morbillorum obtained from complicated skin and skin structure infections […]
[9] = test system: Staphylococcus intermedius; assay: Antibacterial activity against Staphylococcus intermedius obtained from complicated skin and skin structure infections by agar dilution method
Staphylococcus capitis = assay: Antibacterial activity against coagulase-negative Staphylococcus capitis obtained from complicated skin and skin structure infections by agar dilution method
Lactococcus lactis = assay: Antibacterial activity against Lactococcus lactis obtained from complicated skin and skin structure infections by agar dilution method
[10] = Antibacterial activity against Streptococcus sp. 'group G' obtained from complicated skin and skin structure infections by agar dilution method
Staphylococcus hominis = assay: Antibacterial activity against coagulase-negative Staphylococcus hominis obtained from complicated skin and skin structure infections by agar dilution method
Staphylococcus aureus [11] = assay: Antibacterial activity against methicillin susceptible Staphylococcus aureus obtained from complicated skin and skin structure infections by agar dilution method
Enterococcus faecalis = assay: Antibacterial activity against Enterococcus faecalis obtained from complicated skin and skin structure infections by agar dilution method
[12] = test system: Streptococcus constellatus; assay: Antibacterial activity against Streptococcus constellatus obtained from complicated skin and skin structure infections by agar dilution method
Streptococcus pyogenes = assay: Antibacterial activity against Streptococcus pyogenes obtained from complicated skin and skin structure infections by agar dilution method
Prevotella = assay: Antibacterial activity against Prevotella spp. obtained from complicated skin and skin structure infections by agar dilution method
Veillonella = assay: Antibacterial activity against Veillonella spp. obtained from complicated skin and skin structure infections by agar dilution method
Bacteroides fragilis = assay: Antibacterial activity against Bacteroides fragilis obtained from complicated skin and skin structure infections by agar dilution method

Structure (SMILES): CC(=O)NC[C@H]1CN(c2ccc(N3CCOCC3)c(F)c2)C(=O)O1 [LINEZOLID]
MIC (Enterococcus faecium): 2 µg/mL (≈ 5.93 µM)
MIC50 (Enterococcus faecium): 2 µg/mL (≈ 5.93 µM)
MIC50 (Mammaliicoccus sciuri): 1 µg/mL (≈ 2.96 µM)
MIC90 (Mammaliicoccus sciuri): 1 µg/mL (≈ 2.96 µM)
MIC50 (Bacillus): 1 µg/mL (≈ 2.96 µM)
MIC90 (Bacillus): 2 µg/mL (≈ 5.93 µM)
MIC50 (Gemella): 1 µg/mL (≈ 2.96 µM)
MIC90 (Gemella): 2 µg/mL (≈ 5.93 µM)
MIC50 [1]: 1 µg/mL (≈ 2.96 µM)
MIC90 [1]: 1 µg/mL (≈ 2.96 µM)
MIC50 (Streptococcus agalactiae): 1 µg/mL (≈ 2.96 µM)
MIC90 (Streptococcus agalactiae): 1 µg/mL (≈ 2.96 µM)
MIC50 [2]: 1 µg/mL (≈ 2.96 µM)
MIC90 [2]: 2 µg/mL (≈ 5.93 µM)
MIC50 [3]: 1 µg/mL (≈ 2.96 µM)
MIC90 [3]: 1 µg/mL (≈ 2.96 µM)
MIC50 (Aerococcus viridans): 1 µg/mL (≈ 2.96 µM)
MIC90 (Aerococcus viridans): 2 µg/mL (≈ 5.93 µM)
MIC50 [4]: 1 µg/mL (≈ 2.96 µM)
MIC90 [4]: 1 µg/mL (≈ 2.96 µM)
MIC50 (Staphylococcus aureus [5]): 2 µg/mL (≈ 5.93 µM)
MIC90 (Staphylococcus aureus [5]): 2 µg/mL (≈ 5.93 µM)
MIC50 [6]: 1 µg/mL (≈ 2.96 µM)
MIC90 [6]: 1 µg/mL (≈ 2.96 µM)
MIC50 (Staphylococcus): 1 µg/mL (≈ 2.96 µM)
MIC90 (Staphylococcus): 1 µg/mL (≈ 2.96 µM)
MIC50 (Staphylococcus aureus [7]): 2 µg/mL (≈ 5.93 µM)
MIC90 (Staphylococcus aureus [7]): 2 µg/mL (≈ 5.93 µM)
MIC50 (Micrococcus): 1 µg/mL (≈ 2.96 µM)
MIC90 (Micrococcus): 2 µg/mL (≈ 5.93 µM)
MIC50 (Staphylococcus cohnii): 1 µg/mL (≈ 2.96 µM)
MIC90 (Staphylococcus cohnii): 1 µg/mL (≈ 2.96 µM)
MIC50 [8]: 1 µg/mL (≈ 2.96 µM)
MIC90 [8]: 1 µg/mL (≈ 2.96 µM)
MIC50 (Staphylococcus warneri): 1 µg/mL (≈ 2.96 µM)
MIC90 (Staphylococcus warneri): 1 µg/mL (≈ 2.96 µM)
MIC50 (Streptococcus mitis): ≤ 0.06 µg/mL
MIC90 (Streptococcus mitis): 0.06 µg/mL (≈ 0.178 µM)
MIC50 (Gemella morbillorum): 1 µg/mL (≈ 2.96 µM)
MIC90 (Gemella morbillorum): 2 µg/mL (≈ 5.93 µM)
MIC50 [9]: ≤ 0.06 µg/mL
MIC90 [9]: 0.06 µg/mL (≈ 0.178 µM)
MIC50 (Staphylococcus capitis): 1 µg/mL (≈ 2.96 µM)
MIC90 (Staphylococcus capitis): 1 µg/mL (≈ 2.96 µM)
MIC50 (Lactococcus lactis): 1 µg/mL (≈ 2.96 µM)
MIC90 (Lactococcus lactis): 2 µg/mL (≈ 5.93 µM)
MIC [10]: 1 µg/mL (≈ 2.96 µM)
MIC50 [10]: 1 µg/mL (≈ 2.96 µM)
MIC90 [10]: 1 µg/mL (≈ 2.96 µM)
MIC50 (Staphylococcus hominis): 1 µg/mL (≈ 2.96 µM)
MIC90 (Staphylococcus hominis): 1 µg/mL (≈ 2.96 µM)
MIC50 (Staphylococcus aureus [11]): 2 µg/mL (≈ 5.93 µM)
MIC90 (Staphylococcus aureus [11]): 2 µg/mL (≈ 5.93 µM)
MIC50 (Enterococcus faecalis): 1 µg/mL (≈ 2.96 µM)
MIC90 (Enterococcus faecalis): 2 µg/mL (≈ 5.93 µM)
MIC50 [12]: 1 µg/mL (≈ 2.96 µM)
MIC90 [12]: 1 µg/mL (≈ 2.96 µM)
MIC50 (Streptococcus pyogenes): 1 µg/mL (≈ 2.96 µM)
MIC90 (Streptococcus pyogenes): 1 µg/mL (≈ 2.96 µM)

MIC (Prevotella): 0.5 µg/mL (≈ 2.92 µM)
MIC (Veillonella): 0.5 µg/mL (≈ 2.92 µM)
MIC (Bacteroides fragilis): 0.5 µg/mL (≈ 2.92 µM)
Structure (SMILES): Cc1ncc([N+](=O)[O-])n1CCO [METRONIDAZOLE]

Structure (SMILES): CN[C@H](CC(C)C)C(=O)N[C@H]1C(=O)N[C@@H](CC(N)=O)C(=O)N[C@H]2C(=O)N[C@H]3C(=O)N[C@H](C(=O)N[C@H](C(=O)O)c4cc(O)cc(O)c4-c4cc3ccc4O)[C@H](O)c3ccc(c(Cl)c3)Oc3cc2cc(c3O[C@@H]2O[C@H](CO)[C@@H](O)[C@H](O)[C@H]2O[C@H]2C[C@](C)(N)[C@H](O)[C@H](C)O2)Oc2ccc(cc2Cl)[C@H]1O [VANCOMYCIN]
MIC50 (Enterococcus faecium): 1 µg/mL (≈ 0.69 µM)
MIC50 (Mammaliicoccus sciuri): 1 µg/mL (≈ 0.69 µM)
MIC90 (Mammaliicoccus sciuri): 2 µg/mL (≈ 1.38 µM)
MIC50 (Bacillus): 1 µg/mL (≈ 0.69 µM)
MIC90 (Bacillus): 1 µg/mL (≈ 0.69 µM)
MIC50 (Gemella): 1 µg/mL (≈ 0.69 µM)
MIC90 (Gemella): 1 µg/mL (≈ 0.69 µM)
MIC50 [1]: 1 µg/mL (≈ 0.69 µM)
MIC90 [1]: 2 µg/mL (≈ 1.38 µM)
MIC50 (Streptococcus agalactiae): 0.5 µg/mL (≈ 0.345 µM)
MIC90 (Streptococcus agalactiae): 0.5 µg/mL (≈ 0.345 µM)
MIC50 [2]: 0.5 µg/mL (≈ 0.345 µM)
MIC90 [2]: 1 µg/mL (≈ 0.69 µM)
MIC50 [3]: 1 µg/mL (≈ 0.69 µM)
MIC90 [3]: 2 µg/mL (≈ 1.38 µM)
MIC50 (Aerococcus viridans): 1 µg/mL (≈ 0.69 µM)
MIC90 (Aerococcus viridans): 1 µg/mL (≈ 0.69 µM)
MIC50 [4]: 1 µg/mL (≈ 0.69 µM)
MIC90 [4]: 2 µg/mL (≈ 1.38 µM)
MIC50 (Staphylococcus aureus [5]): 1 µg/mL (≈ 0.69 µM)
MIC90 (Staphylococcus aureus [5]): 1 µg/mL (≈ 0.69 µM)
MIC50 [6]: 1 µg/mL (≈ 0.69 µM)
MIC90 [6]: 2 µg/mL (≈ 1.38 µM)
MIC50 (Staphylococcus): 1 µg/mL (≈ 0.69 µM)
MIC90 (Staphylococcus): 2 µg/mL (≈ 1.38 µM)
MIC50 (Staphylococcus aureus [7]): 1 µg/mL (≈ 0.69 µM)
MIC90 (Staphylococcus aureus [7]): 1 µg/mL (≈ 0.69 µM)
MIC50 (Micrococcus): 1 µg/mL (≈ 0.69 µM)
MIC90 (Micrococcus): 1 µg/mL (≈ 0.69 µM)
MIC50 (Staphylococcus cohnii): 1 µg/mL (≈ 0.69 µM)
MIC90 (Staphylococcus cohnii): 2 µg/mL (≈ 1.38 µM)
MIC50 [8]: 1 µg/mL (≈ 0.69 µM)
MIC90 [8]: 2 µg/mL (≈ 1.38 µM)
MIC50 (Staphylococcus warneri): 1 µg/mL (≈ 0.69 µM)
MIC90 (Staphylococcus warneri): 2 µg/mL (≈ 1.38 µM)
MIC50 (Streptococcus mitis): 1 µg/mL (≈ 0.69 µM)
MIC90 (Streptococcus mitis): 1 µg/mL (≈ 0.69 µM)
MIC50 (Gemella morbillorum): 1 µg/mL (≈ 0.69 µM)
MIC90 (Gemella morbillorum): 1 µg/mL (≈ 0.69 µM)
MIC50 [9]: 1 µg/mL (≈ 0.69 µM)
MIC90 [9]: 1 µg/mL (≈ 0.69 µM)
MIC50 (Staphylococcus capitis): 1 µg/mL (≈ 0.69 µM)
MIC90 (Staphylococcus capitis): 2 µg/mL (≈ 1.38 µM)
MIC50 (Lactococcus lactis): 1 µg/mL (≈ 0.69 µM)
MIC90 (Lactococcus lactis): 1 µg/mL (≈ 0.69 µM)
MIC [10]: 0.25 µg/mL (≈ 0.173 µM)
MIC50 [10]: 0.25 µg/mL (≈ 0.173 µM)
MIC90 [10]: 0.5 µg/mL (≈ 0.345 µM)
MIC50 (Staphylococcus hominis): 1 µg/mL (≈ 0.69 µM)
MIC90 (Staphylococcus hominis): 2 µg/mL (≈ 1.38 µM)
MIC50 (Staphylococcus aureus [11]): 1 µg/mL (≈ 0.69 µM)
MIC90 (Staphylococcus aureus [11]): 1 µg/mL (≈ 0.69 µM)
MIC (Enterococcus faecalis): 1 µg/mL (≈ 0.69 µM)
MIC50 (Enterococcus faecalis): 1 µg/mL (≈ 0.69 µM)
MIC90 (Enterococcus faecalis): 2 µg/mL (≈ 1.38 µM)
MIC50 [12]: 0.5 µg/mL (≈ 0.345 µM)
MIC90 [12]: 0.5 µg/mL (≈ 0.345 µM)
MIC50 (Streptococcus pyogenes): 0.5 µg/mL (≈ 0.345 µM)
MIC90 (Streptococcus pyogenes): 0.5 µg/mL (≈ 0.345 µM)
